The results in this text go back to paper PMC3388857, “Synthesis and antiviral activities of spacer-linked 1-thioglucuronide analogues of glycyrrhizin” (Beilstein Journal of Organic Chemistry, 2012).

Structures are written as SMILES. A value given as a limit tells only on which side of the number the result lay.

For one data set, the system named is influenza A H3N2 virus. The data set can be described thus: Antiviral activity in influenza A virus-infected MDCK cells (prevention of virus-induced cytopathicity, CellTiter-Glo, 48 h). Type of data set: cell-based, influenza A virus A/Aichi/2/68 (H3N2). The settings on record: for antiviral activity (in words): influenza A H3N2-infected MDCK cells, up to 250 µM; for IC50: Influenza A virus, H3N2, MDCK, 48 h, MDCK cells infected with influenza A H3N2, MOI 0.05, compound added with virus, read-out: IC50 (half-maximal inhibitory concentration, antiviral activity); for fold more active compared to GL: ratio of antiviral IC50 values versus lead compound GL. The procedure: For biological testing the compounds were dissolved in DMSO and diluted in cell culture medium to a maximum final DMSO concentration of 1%. For determination of the cytotoxicity of the compounds, MDCK cells were treated with compound concentrations ranging from 3.1 µM to 250 µM for 48 h and then cell viability was determined as a surrogate endpoint for cytotoxicity. […] GL was not toxic at 2500 µM (Table 1). The antiviral activity of the compounds was determined by infecting MDCK cells with influenza A H3N2 virus and treating them with different concentrations of compounds at the same time. […] Compound 16 containing only the N-succinyl substituent is a close analogue to CBX bearing an amide instead of the ester group. […] This was further supported by the data obtained with compound 23 containing a 1-thioethyl-linked glucuronic acid residue at position 3 of 1,2-dehydro-glycyrrhetinic acid.
The influenza A virus (IAV) was obtained from American Tissue Culture Collection (A/Aichi/2/68 (H3N2); VR-547). Virus stocks were prepared by propagation of virus on Mardin-Darby canine kidney (MDCK; ATCC CCL-34) cells and infectious titers of virus stocks were determined by the 50% tissue culture infective dose (TCID50) analysis as described in [5].
MDCK cells were seeded in 96-well plates at 2×10^4 cells/well using DMEM/Ham’s F-12 (1:1) medium containing 10% foetal bovine serum (FBS), 2 mM L-glutamine and 1% antibiotic– antimycotic solution (penicillin, 10.000 units/mL; streptomycin, sulfate 10 mg/mL; Amphotericin B, 25 µg/ml) (all from PAA). Until infection the cells were incubated for 5 h at 37 °C/5.0% CO2 to form a ~80% confluent monolayer on the bottom of the well. Test compounds were dissolved in DMSO and dilution series were prepared in infection medium (DMEM/Ham’s F-12 (1:1) containing 5 µg/mL trypsin (Sigma T4945), and 1% antibiotic–antimycotic solution) resulting in a final plate well DMSO concentration of 1%. The virus stock was generally diluted in infection medium (DMEM/Ham’s F-12 (1:1) containing 5 µg/mL trypsin, 1% DMSO, and 1% antibiotics) to a theoretical multiplicity of infection (MOI) of 0.05. After removal of the culture medium and one washing step with PBS, the virus and compound solution were added together to the cells. In the wells used for cytotoxicity determination (uninfected cells), the virus suspension was replaced by infection medium. Each treatment was conducted in two replicates. After incubation at 37 °C, […]
formation, or other notable abnormalities. Then, cell viability was determined by using CellTiter-Glo luminescent cell viability assay (Promega). The supernatant was removed carefully and 65 µL of the reconstituted reagent was added to each well and incubated for 15 min at room temperature under gentle shaking. Then, 60 µL of the solution was transferred to an opaque plate and luminescence (RLU) was measured by using a Synergy HT plate reader (Biotek). The […]
compounds were titrated on virus-infected MDCK cells and the response (RLU) was used to determine the IC50 value by using a 4-parameter logistic equation (GraphPad Prism) whereby the top and bottom of the curve were defined by the response (RLU) of untreated uninfected cells and untreated infected cells, respectively. The cytotoxicity of the compounds was determined by titration on uninfected MDCK cells, and the response (RLU) was used to determine the CC50 value by using a 4-parameter logistic equation whereby the top of the curve was defined by the response (RLU) of untreated uninfected cells. […]
On the technique in general: Protection from cytopathic effect is a common read-out in antiviral testing.

The test system of a further data set is MDCK cells. The settings on record: uninfected MDCK cells, 3.1 µM to 250 µM, 48 h.
Another data set can be described thus: in vitro. The settings on record: dog, CC50 (cytotoxic concentration 50%), compound-treated uninfected MDCK cells, 48 h, cell viability.

In general, CC50 refers to the concentration giving 50% cytotoxicity. A high value points to better tolerance by the cells. For the compound `CC1(C)[C@@H](OC(=O)CCC(=O)O)CC[C@]2(C)[C@H]3C(=O)C=C4[C@@H]5C[C@@](C)(C(=O)O)CC[C@]5(C)CC[C@@]4(C)[C@]3(C)CC[C@@H]12` [CBX, carbenoxolone, reference compound], in the data set on influenza A H3N2 virus, the “antiviral activity (in words)” value is “did not show any antiviral activity at nontoxic concentrations”. Further, the “cytotoxicity (in words)” value in the data set with MDCK cells is listed as “toxic at low concentrations”. This compound displayed a CC50 in the data set “in vitro” of 17.8 ± 2.3 µM.

Regarding `COC(=O)[C@H]1O[C@@H](SCCN[C@H]2CC[C@@]3(C)C(CC[C@]4(C)C3C(=O)C=C3[C@@H]5C[C@@](C)(C(=O)O)CC[C@]5(C)CC[C@]34C)C2(C)C)[C@H](O)[C@@H](O)[C@@H]1O` (some centres unmarked) [Compound 12], in the data set with influenza A H3N2 virus, the IC50 was found to be 220 ± 41 µM and the “fold more active compared to GL” value is given as 4.7 fold. Also, in the data set “in vitro”, the CC50 is > 250 µM.

`CC1(C)C2CC[C@]3(C)C(C(=O)C=C4[C@@H]5C[C@@](C)(C(=O)O)CC[C@]5(C)CC[C@]43C)[C@@]2(C)CC[C@@H]1NCCS[C@@H]1O[C@H](C(=O)O)[C@@H](O)[C@H](O)[C@H]1O` (some centres unmarked) [Compound 13]: in the data set with influenza A H3N2 virus, the IC50 is > 250 µM. In addition, the CC50 in the data set “in vitro” was > 250 µM.

For `COC(=O)[C@H]1O[C@@H](SCCN(C(C)=O)[C@H]2CC[C@@]3(C)C(CC[C@]4(C)C3C(=O)C=C3[C@@H]5C[C@@](C)(C(=O)O)CC[C@]5(C)CC[C@]34C)C2(C)C)[C@H](O)[C@@H](O)[C@@H]1O` (some centres unmarked) [Compound 14], in the data set with influenza A H3N2 virus, the IC50 was 72.1 µM and the “fold more active compared to GL” value is on record as “approximately 14 fold”.

In the case of `CC(=O)N(CCS[C@@H]1O[C@H](C(=O)O)[C@@H](O)[C@H](O)[C@H]1O)[C@H]1CC[C@@]2(C)C(CC[C@]3(C)C2C(=O)C=C2[C@@H]4C[C@@](C)(C(=O)O)CC[C@]4(C)CC[C@]23C)C1(C)C` (some centres unmarked) [Compound 15], in the data set with influenza A H3N2 virus, the IC50 amounted to 87 ± 7.9 µM and the “antiviral activity (in words)” value is “IC50 value in the same range as the methyl ester 14”. In “in vitro”, the CC50 was > 250 µM.

On to `CC1(C)C2CC[C@]3(C)C(C(=O)C=C4[C@@H]5C[C@@](C)(C(=O)O)CC[C@]5(C)CC[C@]43C)[C@@]2(C)CC[C@@H]1NC(=O)CCC(=O)O` (some centres unmarked) [Compound 16, reference compound], for which, in the data set with influenza A H3N2 virus, the IC50 is > 250 µM and the “antiviral activity (in words)” value was “inactive”. Also, in the data set on MDCK cells, the “cytotoxicity (in words)” value was “not toxic”. For the same compound, the cytotoxic concentration (CC50) in “in vitro” is > 250 µM.

With `COC(=O)CCC(=O)N(CCS[C@@H]1O[C@H](C(=O)OC)[C@@H](O)[C@H](O)[C@H]1O)[C@H]1CC[C@@]2(C)C(CC[C@]3(C)C2C(=O)C=C2[C@@H]4C[C@@](C)(C(=O)O)CC[C@]4(C)CC[C@]23C)C1(C)C` (some centres unmarked) [Compound 18], in the data set on influenza A H3N2 virus, the IC50 was determined as 125 ± 15.9 µM and the “fold more active compared to GL” value came out at 8 fold. Further, in the data set “in vitro”, the CC50 was > 250 µM.

Consider `CC1(C)C2CC[C@]3(C)C(C(=O)C=C4[C@@H]5C[C@@](C)(C(=O)O)CC[C@]5(C)CC[C@]43C)[C@@]2(C)CC[C@@H]1N(CCS[C@@H]1O[C@H](C(=O)O)[C@@H](O)[C@H](O)[C@H]1O)C(=O)CCC(=O)O` (some centres unmarked) [Compound 19], for which the IC50 with influenza A H3N2 virus was > 250 µM. Further, the CC50 in the data set “in vitro” was > 250 µM.

Regarding `CC1(C)C(SCCS[C@@H]2O[C@H](C(=O)O)[C@@H](O)[C@H](O)[C@H]2O)C=C[C@@]2(C)C1CC[C@]1(C)C2C(=O)C=C2[C@@H]3C[C@@](C)(C(=O)O)CC[C@]3(C)CC[C@]21C` (some centres unmarked) [Compound 23], the IC50 with influenza A H3N2 virus came to 54 ± 13 µM. In the data set with MDCK cells, the “cytotoxicity (in words)” value is recorded as “no cytotoxicity at the concentrations tested”. Besides, the CC50 in “in vitro” is > 250 µM.

As to `CC1(C)[C@@H](O)CC[C@]2(C)[C@H]3C(=O)C=C4[C@@H]5C[C@@](C)(C(=O)O)CC[C@]5(C)CC[C@@]4(C)[C@]3(C)CC[C@@H]12` [GA, glycyrrhetinic acid, reference compound], in the data set on influenza A H3N2 virus, the “antiviral activity (in words)” value is “did not show any antiviral activity at nontoxic concentrations”. In addition, the CC50 in the data set “in vitro” is 7.4 ± 0.05 µM.

As for `CC1(C)[C@@H](O[C@H]2O[C@H](C(=O)O)[C@@H](O)[C@H](O)[C@H]2O[C@@H]2O[C@H](C(=O)O)[C@@H](O)[C@H](O)[C@H]2O)CC[C@]2(C)[C@H]3C(=O)C=C4[C@@H]5C[C@@](C)(C(=O)O)CC[C@]5(C)CC[C@@]4(C)[C@]3(C)CC[C@@H]12` [GL, glycyrrhizin], the IC50 in the data set on influenza A H3N2 virus amounted to 1030 ± 181 µM. Moreover, the 50% cytotoxic concentration (CC50) in the data set “in vitro” is > 2500 µM.
